Data: patent US11471390B2, “Pseudoceramide compound and use thereof” (DAEBONG LS, LTD, priority 2017, dated 2022)

Tested on: Raw264.7 macrophage cells
Experiment: Cell viability of Raw264.7 macrophage cells by MTT assay (cytotoxicity)
Type: cell-based
Conditions: Raw264.7, MTT
Protocol: The cell viabilities of Raw264.7 macrophage cells were assessed by MTT assay to evaluate the cytotoxicities of the pseudoceramide compounds. When the cell viability was ≥80% by MTT assay, the pseudoceramide compound was judged to be not cytotoxic. The cell viabilities of the pseudoceramide compounds were […] at concentrations of 1-50 μg/mL, indicating no toxicity to Raw264.7 macrophage (Table 1). Another experiment for anti-inflammatory effects of the pseudoceramide compounds was conducted at concentrations of 1-50 μg/mL.

CCCCCCCC/C=C\CCCCCCCC(=O)NC(CO)CO [Example 1, N-(1,3-dihydroxypropan-2-yl)oleamide]
Cell viability (%) (concentration 5.0 (μg/mL)): 100.99% | Cell viability (%) (concentration 10.0 (μg/mL)): 102.08% | Cell viability (%) (concentration 25.0 (μg/mL)): 102.14% | Cell viability (%) (concentration 50.0 (μg/mL)): 102.22%

CC/C=C\C/C=C\C/C=C\CCCCCCCC(=O)NC(CO)CO [Example 3, (9Z,12Z,15Z)—N-(1,3-dihydroxypropan-2-yl)octadeca-9,12,15-trienamide]
Cell viability (%) (concentration 5.0 (μg/mL)): 95.72% | Cell viability (%) (concentration 10.0 (μg/mL)): 101.01% | Cell viability (%) (concentration 25.0 (μg/mL)): 96.58% | Cell viability (%) (concentration 50.0 (μg/mL)): 96.64%

Cc1ccnc(N)c1 [2-Amino-4-methylpyridine, reference compound]
Cell viability (%) (10 μM): 103.13%

CCCCC/C=C\C/C=C\CCCCCCCC(=O)NC(CO)CO [Example 2, (9Z,12Z)—N-(1,3-dihydroxypropan-2-yl)octadeca-9,12-dienamide]
Cell viability (%) (concentration 5.0 (μg/mL)): 100.35% | Cell viability (%) (concentration 10.0 (μg/mL)): 100.24% | Cell viability (%) (concentration 25.0 (μg/mL)): 100.09% | Cell viability (%) (concentration 50.0 (μg/mL)): 93.80%
